Measured values from patent US11040976B2, “Substrate selective inhibitors of insulin-degrading enzyme (IDE) and uses thereof” (President and Fellows of Harvard College, priority 2015, dated 2021).

What was measured:
[1] = target: T1, recombinant human IDE42-1019 (Homo sapiens, UniProt P14735); assay: Protease assay with fluorogenic peptide substrate Mca-[…](Dnp)-OH; format: biochemical; conditions: fluorogenic peptide Mca-RPPGFSAFK(Dnp)-OH; for IC50: apparent IC50 for compounds with submaximal inhibition, read-out: IC50 (μM) Proteolysis; for Emax: plateau at high inhibitor concentration, read-out: Imax (%) Proteolysis (inhibition maximum)
T1 construct: recombinant human IDE42-1019 (R&D Systems); purchased R&D Systems
T1 sequence (P14735 42-1019): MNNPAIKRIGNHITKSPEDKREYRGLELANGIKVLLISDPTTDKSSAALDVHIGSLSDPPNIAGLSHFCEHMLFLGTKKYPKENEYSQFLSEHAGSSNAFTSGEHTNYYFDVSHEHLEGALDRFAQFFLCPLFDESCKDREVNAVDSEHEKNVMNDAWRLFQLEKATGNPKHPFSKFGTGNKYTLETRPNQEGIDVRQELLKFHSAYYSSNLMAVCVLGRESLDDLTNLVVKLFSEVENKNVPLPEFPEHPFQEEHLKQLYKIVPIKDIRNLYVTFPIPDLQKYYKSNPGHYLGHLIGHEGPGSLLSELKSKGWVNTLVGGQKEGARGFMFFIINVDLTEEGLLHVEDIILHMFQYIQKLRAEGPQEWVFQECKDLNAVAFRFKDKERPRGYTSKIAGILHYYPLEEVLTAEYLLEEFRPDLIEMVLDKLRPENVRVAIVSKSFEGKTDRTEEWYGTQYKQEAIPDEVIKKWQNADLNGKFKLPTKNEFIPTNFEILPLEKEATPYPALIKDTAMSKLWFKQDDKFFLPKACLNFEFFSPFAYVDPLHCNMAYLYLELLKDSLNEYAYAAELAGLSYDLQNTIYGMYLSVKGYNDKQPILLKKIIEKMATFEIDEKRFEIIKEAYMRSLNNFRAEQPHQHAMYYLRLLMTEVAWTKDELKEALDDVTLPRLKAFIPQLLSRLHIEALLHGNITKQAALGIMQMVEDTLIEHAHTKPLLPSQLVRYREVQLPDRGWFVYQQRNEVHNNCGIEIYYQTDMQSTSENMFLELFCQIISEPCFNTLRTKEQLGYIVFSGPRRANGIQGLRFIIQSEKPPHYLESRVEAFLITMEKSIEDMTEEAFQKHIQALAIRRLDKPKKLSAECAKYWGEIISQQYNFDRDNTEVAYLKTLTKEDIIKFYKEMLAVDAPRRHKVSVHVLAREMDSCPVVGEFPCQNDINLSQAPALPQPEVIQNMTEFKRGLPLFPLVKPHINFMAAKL

IDE, substrate glucagon = target: T2, IDE, substrate glucagon (Homo sapiens, UniProt P14735); assay: MALDI analysis of glucagon cleavage products (FIGS. 27-32); format: biochemical; conditions: FIG. 27A
T2 sequence (P14735 1-1019): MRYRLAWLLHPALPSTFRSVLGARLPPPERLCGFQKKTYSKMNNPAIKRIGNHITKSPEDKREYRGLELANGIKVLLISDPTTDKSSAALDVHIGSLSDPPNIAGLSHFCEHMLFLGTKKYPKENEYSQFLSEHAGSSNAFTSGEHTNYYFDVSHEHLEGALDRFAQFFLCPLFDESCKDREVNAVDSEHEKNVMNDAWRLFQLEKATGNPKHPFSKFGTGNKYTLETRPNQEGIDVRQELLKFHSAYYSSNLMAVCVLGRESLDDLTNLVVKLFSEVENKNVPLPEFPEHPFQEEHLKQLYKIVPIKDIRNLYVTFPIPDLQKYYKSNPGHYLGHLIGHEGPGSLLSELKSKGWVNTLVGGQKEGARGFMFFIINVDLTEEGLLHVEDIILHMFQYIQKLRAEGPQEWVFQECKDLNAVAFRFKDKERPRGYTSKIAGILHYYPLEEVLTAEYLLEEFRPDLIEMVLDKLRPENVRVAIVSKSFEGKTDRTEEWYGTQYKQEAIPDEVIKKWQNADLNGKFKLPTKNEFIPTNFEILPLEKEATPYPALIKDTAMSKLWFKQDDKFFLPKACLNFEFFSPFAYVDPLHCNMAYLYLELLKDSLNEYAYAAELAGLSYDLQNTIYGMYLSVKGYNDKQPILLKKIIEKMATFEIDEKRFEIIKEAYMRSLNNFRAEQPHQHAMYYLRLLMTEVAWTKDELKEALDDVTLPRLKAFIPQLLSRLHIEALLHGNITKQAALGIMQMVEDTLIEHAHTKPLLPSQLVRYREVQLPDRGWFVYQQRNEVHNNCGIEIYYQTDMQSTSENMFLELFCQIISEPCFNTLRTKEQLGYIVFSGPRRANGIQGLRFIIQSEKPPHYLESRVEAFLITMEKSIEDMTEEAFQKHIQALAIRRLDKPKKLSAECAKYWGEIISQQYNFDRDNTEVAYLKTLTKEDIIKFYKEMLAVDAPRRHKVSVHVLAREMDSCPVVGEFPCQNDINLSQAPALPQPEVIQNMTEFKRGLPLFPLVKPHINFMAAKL

[2] = target: T3, Human N-His6-IDE42-1019 (E. coli expressed) (Homo sapiens, UniProt P14735); assay: Fluorescence anisotropy high-throughput screening assay (displacement of probe FL-6b); format: binding
T3 construct: Human N-His6-IDE42-1019 (E. coli expressed); made in house; host or cells: E. coli (Rosetta 2 (DE3) pLysS, plasmid pTrcHis-A)
T3 sequence (P14735 42-1019): T1 sequence (P14735 42-1019)
Outline: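 Compounds at 20 μM final were added to 0.5 μM enzyme with fluorescein-labelled macrocycle probe ([…]) in 50 mM Tris pH 8.0, 1 M NaCl, 25 °C. Anisotropy (ex 492/em 523 nm) was read after 30 min in duplicate. Z-scores were calculated against plate DMSO controls.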

[3] = target: T4, IDE (R&D), substrate glucagon (Homo sapiens, UniProt P14735); assay: HTRF assay for IDE-mediated degradation of glucagon; format: biochemical; conditions: compounds 67 μM, 0° C. for 10 minutes, versus DMSO alone, FIG. 5
T4 construct: recombinant human IDE42-1019 (R&D Systems); purchased R&D
T4 sequence (P14735 42-1019): T1 sequence (P14735 42-1019)
Method: A solution of 0.05 μg/mL IDE (R&D) in “Diluent #5” (CisBio, 24 μL) was transferred to a 200 μL tube strip, and combined with 1 μL of each inhibitor (10 mM in DMSO, or as a 3-fold dilution series). […] This procedure was optimized to result in ˜75% degradation of glucagon. The reaction was terminated by 1 μL of inhibitor Ii1 (5 μM) and chilled on ice. The remaining glucagon was quantified using 10 μL of the quenched enzymatic reaction using the sensitive-range protocol Homogeneous Time-Resolved FRET Glucagon assay (CisBio® 62GLCPEF, see FIG. 3) in 20 μL total volume according to the manufacturer's instructions (384 well-plate Greiner 784904 non-binding). Fluorescence was measured using a Tecan M1000Pro plate reader (excitation=340 nm, emission=665 and 620 nm, lag time=60 μs) according the assay manufacturer's recommendations. Blank wells and glucagon standard curve were included in the assay.
FIG. 4 compares the determined endpoint for insulin degradation with of glucagon degradation for a DMSO control, 6bK at 10 μM, and exemplary compounds of the invention at concentrations of 67 μM.
The HTRF endpoint assay for insulin and glucagon was performed over a range of concentrations for several potential inhibitors and for 6bK.

[4] = final compound concentration 20 μM (6bK control 1 μM), values without asterisk

| SMILES | IC50 [1] [µM] | main glucagon cleavage site (IDE, substrate glucagon) | Average Z-score (Fluorescence anisotropy) [2, 4] | initial rates of glucagon cleavage [3] | Emax [1] [%] | Average Z-score (Fluorescence anisotropy) ([2]; values marked *: from the screen using the diversity-oriented synthesis (DOS) informer set of plates, 20 μM) |
| --- | --- | --- | --- | --- | --- | --- |
| Cc1cccc(-c2ccc([C@@H]3[C@@H](CO)N4CCCCN(S(=O)(=O)c5ccccc5C(F)(F)F)C[C@@H]34)cc2)c1C [JP-17] | 0.001 | no change in the main glucagon cleavage site | – | – | – | – |
| Cc1cccc(-c2ccc([C@H]3C4CN(S(=O)(=O)c5ccccc5C(F)(F)F)CCCCN4[C@@H]3CF)cc2)c1C (some centres unmarked) [JP-18] | – | no change in the main glucagon cleavage site | – | – | – | – |
| Cc1ccccc1-c1ccc([C@H]2[C@H](CO)N3C(=O)CN(C(=O)NC4CCCC4)C[C@@H]23)cc1 [compound 504] | 0.8 | – | −20.82 | enhanced | – | – |
| Cc1ccccc1-c1ccc([C@@H]2[C@@H](CO)N3CCCCN(S(C)(=O)=O)C[C@@H]23)cc1 [compound 591] | 1.5 | – | −17.90 | enhanced | 40 | – |
| CCCNC(=O)N1CC(=O)N2[C@H](CO)[C@@H](c3ccc(-c4cccc(C)c4)cc3)[C@@H]2C1 [compound 779] | 0.8 | – | −22.36 | reduced | 60 | – |
| COc1ccccc1-c1ccc([C@H]2[C@@H](CO)N3CCCCN(C(=O)c4cccnc4)C[C@H]23)cc1 [compound 983] | > 20 | – | – | – | 90 | −12.81* |
| Cc1ccccc1-c1ccc([C@H]2[C@@H](CO)N3CCCCN(C(=O)Nc4ccccc4)C[C@@H]23)cc1 [compound 1570] | 7 | – | −1.37 | – | 40 | – |
| Cc1ccccc1-c1ccc([C@H]2[C@@H](CO)N3C(=O)CN(C(=O)c4cccnc4)C[C@H]23)cc1 [compound 3421] | 2 | – | −17.16 | – | 60 | – |
